Measurements: ChEMBL document CHEMBL1201862, “PubChem BioAssay data set” (2004)
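Test compounds were applied to cells in 96-well plates for 48 hours at 5 doses. GI50: concentration for 50% inhibition of growth.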 Active and inactive are the calls of the source. No stated cut-off is given here; in the data, active = GI50 up to about 1.1 µM and inactive = higher.

What was measured:
Experiment in all cases: inhibition of tumour cell growth, NCI panel, 48 h
[1] = tested on: M19-MEL
[2] = tested on: DMS-114
[3] = tested on: SF-268
[4] = tested on: SN12C
[5] = tested on: OVCAR-5
[6] = tested on: MOLT-4
[7] = tested on: RPMI-8226
[8] = tested on: SK-MEL-28
[9] = tested on: KM-20L2
[10] = tested on: SK-OV-3
[11] = tested on: ACHN
[12] = tested on: A498
[13] = tested on: Malme-3M
[14] = tested on: SW-620
[15] = tested on: NCI-H23
[16] = tested on: TK-10
[17] = tested on: HCC 2998
[18] = tested on: HL-60
[19] = tested on: OVCAR-3
[20] = tested on: HCT-15
[21] = tested on: 786-0
[22] = tested on: SNB-75
[23] = tested on: HOP-18
[24] = tested on: OVCAR-4
[25] = tested on: COLO 205
[26] = tested on: SF-295
[27] = tested on: SNB-19
[28] = tested on: HOP-62
[29] = tested on: M14
[30] = tested on: U-251
[31] = tested on: SNB-78
[32] = tested on: SK-MEL-2
[33] = tested on: A549
[34] = tested on: KM12
[35] = tested on: HOP-92
[36] = tested on: LXFL 529
[37] = tested on: NCI-H226
[38] = tested on: UACC-257
[39] = tested on: NCI-H460
[40] = tested on: RXF 393
[41] = tested on: HT-29
[42] = tested on: CCRF-CEM
[43] = tested on: SK-MEL-5
[44] = tested on: DMS-273
[45] = tested on: EKVX
[46] = tested on: HCT-116
[47] = tested on: XF498
[48] = tested on: DLD-1
[49] = tested on: CAKI-1
[50] = tested on: K562
[51] = tested on: RXF 631
[52] = tested on: OVCAR-8
[53] = tested on: SF-539
[54] = tested on: IGROV-1
[55] = tested on: UACC-62

CCOc1ccc(/N=C/c2cccc3cccnc23)cc1
GI50 [1]: > 100 µM (inactive)
GI50 [2]: 88.7 µM (inactive)
GI50 [3]: > 100 µM (inactive)
GI50 [4]: > 100 µM (inactive)
GI50 [5]: > 100 µM (inactive)
GI50 [6]: 45.3 µM (inactive)
GI50 [7]: 30.3 µM (inactive)
GI50 [8]: > 100 µM (inactive)
GI50 [9]: > 100 µM (inactive)
GI50 [10]: > 100 µM (inactive)
GI50 [11]: > 100 µM (inactive)
GI50 [12]: > 100 µM (inactive)
GI50 [13]: > 100 µM (inactive)
GI50 [14]: 50.5 µM (inactive)
GI50 [15]: > 100 µM (inactive)
GI50 [16]: > 100 µM (inactive)
GI50 [17]: > 100 µM (inactive)
GI50 [18]: 25.6 µM (inactive)
GI50 [19]: > 100 µM (inactive)
GI50 [20]: 38.2 µM
GI50 [21]: > 100 µM (inactive)
GI50 [22]: > 100 µM (inactive)
GI50 [23]: > 100 µM (inactive)
GI50 [24]: > 100 µM (inactive)
GI50 [25]: > 100 µM (inactive)
GI50 [26]: > 100 µM (inactive)
GI50 [27]: > 100 µM (inactive)
GI50 [28]: > 100 µM (inactive)
GI50 [29]: 44.7 µM (inactive)
GI50 [30]: > 100 µM (inactive)
GI50 [31]: > 100 µM (inactive)
GI50 [32]: > 100 µM (inactive)
GI50 [33]: > 100 µM (inactive)
GI50 [34]: 39.8 µM (inactive)
GI50 [35]: > 100 µM (inactive)
GI50 [36]: 13.2 µM (inactive)
GI50 [37]: > 100 µM (inactive)
GI50 [38]: > 100 µM (inactive)
GI50 [39]: > 100 µM (inactive)
GI50 [40]: > 100 µM (inactive)
GI50 [41]: > 100 µM (inactive)
GI50 [42]: 62.5 µM (inactive)
GI50 [43]: > 100 µM (inactive)
GI50 [44]: 81.3 µM (inactive)
GI50 [45]: > 100 µM (inactive)
GI50 [46]: 43.8 µM (inactive)
GI50 [47]: > 100 µM (inactive)
GI50 [48]: 51.4 µM (inactive)
GI50 [49]: > 100 µM (inactive)
GI50 [50]: 20 µM (inactive)
GI50 [51]: > 100 µM (inactive)
GI50 [52]: > 100 µM (inactive)
GI50 [53]: > 100 µM (inactive)
GI50 [54]: > 100 µM (inactive)
GI50 [55]: > 100 µM (inactive)
